Measured values reported in patent publication US20230085307A1, “PYRIDAZINONE COMPOUND AND HERBICIDE” (NISSAN CHEMICAL CORPORATION, priority 2019, published 2023).

Legend:
[1] = test system: late watergrass; test: Test Example 1: herbicidal activity, application before weed generation under submerged conditions (Table 16, symbol A); format: in vivo, late watergrass (Echinochloa oryzicola); details: 320 g/ha applied herbicide
How it was run: (§1)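 Submerged Wagner pots (alluvial soil, 4 cm water) sown with weed seeds and planted with 2.5-leaf rice seedlings; emulsifiable concentrate diluted in water applied to water surface on sowing day. Held in greenhouse at 25-30 °C; injury scored 0-5 by herbicidal rate after three weeks.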

[2] = test system: Japanese bulrush; test: Test Example 1: herbicidal activity, application before weed generation under submerged conditions (Table 16, symbol B); format: in vivo, Japanese bulrush (Schoenoplectus juncoides); details: 320 g/ha applied herbicide
How it was run: as §1

[3] = test system: oval-leafed pondweed; test: Test Example 1: herbicidal activity, application before weed generation under submerged conditions (Table 16, symbol C); format: in vivo, oval-leafed pondweed (Monochoria vaginalis); details: 320 g/ha applied herbicide
How it was run: as §1

[4] = test system: barnyard grass; test: Test Example 3: herbicidal effect by foliage application, Wagner pot (Table 18, symbol H); format: in vivo, barnyard grass (Echinochloa crus-galli); details: amount of applied herbicide 320 g/ha
How it was run: (§2)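 Plants were sown in alluvial soil held under 0.1–0.5 cm standing water and grown 14 days in a greenhouse at 25–30 °C. An emulsifiable formulation, water-diluted to the set dose, was then sprayed onto the foliage, and effects were scored three weeks later using previously defined criteria.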

[5] = test system: Chinese sprangletop; test: Test Example 3: herbicidal effect by foliage application, Wagner pot (Table 18, symbol D); format: in vivo, chinese sprangletop (Leptochloa chinensis); details: amount of applied herbicide 320 g/ha
How it was run: as §2

[6] = test system: rice flat sedge; test: Test Example 3: herbicidal effect by foliage application, Wagner pot (Table 18, symbol E); format: in vivo, rice flat sedge (Cyperus iria); details: amount of applied herbicide 320 g/ha
How it was run: as §2

[7] = test system: southern crabgrass; test: Test Example 4: herbicidal effect by soil treatment (Table 19, symbol F); format: in vivo, southern crabgrass (Digitaria ciliaris); details: amount of applied herbicide 320 g/ha
How it was run: (§3)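 Three weeks of greenhouse growth at 25° C. to 30° C. followed a uniform surface spray of water-diluted emulsion at a predetermined herbicide amount. Seeds had been sown beforehand under about 1.5 cm of sterilized diluvial soil. Grading followed criteria set out in an earlier test.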

[8] = test system: green foxtail; test: Test Example 4: herbicidal effect by soil treatment (Table 19, symbol G); format: in vivo, green foxtail (Setaria viridis); details: amount of applied herbicide 320 g/ha
How it was run: as §3

[9] = test system: barnyard grass; test: Test Example 4: herbicidal effect by soil treatment (Table 19, symbol H); format: in vivo, barnyard grass (Echinochloa crus-galli); details: amount of applied herbicide 320 g/ha
How it was run: as §3

[10] = test system: wild oat; test: Test Example 4: herbicidal effect by soil treatment (Table 19, symbol I); format: in vivo, wild oat (Avena fatua); details: amount of applied herbicide 320 g/ha
How it was run: as §3

[11] = test system: blackgrass; test: Test Example 4: herbicidal effect by soil treatment (Table 19, symbol J); format: in vivo, blackgrass (Alopecurus myosuroides); details: amount of applied herbicide 320 g/ha
How it was run: as §3

[12] = test system: Italian ryegrass; test: Test Example 4: herbicidal effect by soil treatment (Table 19, symbol K); format: in vivo, Italian ryegrass (Lolium multiflorum); details: amount of applied herbicide 320 g/ha
How it was run: as §3

[13] = test system: windgrass; test: Test Example 4: herbicidal effect by soil treatment (Table 19, symbol L); format: in vivo, windgrass (Apera spica-venti); details: amount of applied herbicide 320 g/ha
How it was run: as §3

[14] = test system: velvetleaf; test: Test Example 4: herbicidal effect by soil treatment (Table 19, symbol M); format: in vivo, velvetleaf (Abutilon theophrasti); details: amount of applied herbicide 320 g/ha
How it was run: as §3

[15] = test system: redroot pigweed; test: Test Example 4: herbicidal effect by soil treatment (Table 19, symbol N); format: in vivo, redroot pigweed (Amaranthus retroflexus); details: amount of applied herbicide 320 g/ha
How it was run: as §3

[16] = test system: lambsquarters; test: Test Example 4: herbicidal effect by soil treatment (Table 19, symbol O); format: in vivo, lambsquarters (Chenopodium album); details: amount of applied herbicide 320 g/ha
How it was run: as §3

[17] = test system: chickweed; test: Test Example 4: herbicidal effect by soil treatment (Table 19, symbol P); format: in vivo, common chickweed (Stellaria media); details: amount of applied herbicide 320 g/ha
How it was run: as §3

[18] = test system: persian speedwell; test: Test Example 4: herbicidal effect by soil treatment (Table 19, symbol R); format: in vivo, Persian speedwell (Veronica persica); details: amount of applied herbicide 320 g/ha
How it was run: as §3

[19] = test system: southern crabgrass; test: Test Example 5: herbicidal effect by foliage application, plastic box (Table 20, symbol F); format: in vivo, southern crabgrass (Digitaria ciliaris); details: foliage application, 320 g/ha, evaluated three weeks after application
How it was run: (§4)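 Plants sown in sterilized diluvial soil and grown 14 days in a greenhouse at 25° C to 30° C, then sprayed on the foliage with the compound's emulsion diluted in water to a predetermined herbicide amount. Injury to weeds and crops scored three weeks after application on a visual rating scale.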

[20] = test system: green foxtail; test: Test Example 5: herbicidal effect by foliage application, plastic box (Table 20, symbol G); format: in vivo, green foxtail (Setaria viridis); details: foliage application, 320 g/ha, evaluated three weeks after application
How it was run: as §4

[21] = test system: barnyard grass; test: Test Example 5: herbicidal effect by foliage application, plastic box (Table 20, symbol H); format: in vivo, barnyard grass (Echinochloa crus-galli); details: foliage application, 320 g/ha, evaluated three weeks after application
How it was run: as §4

[22] = test system: wild oat; test: Test Example 5: herbicidal effect by foliage application, plastic box (Table 20, symbol I); format: in vivo, wild oat (Avena fatua); details: foliage application, 320 g/ha, evaluated three weeks after application
How it was run: as §4

[23] = test system: blackgrass; test: Test Example 5: herbicidal effect by foliage application, plastic box (Table 20, symbol J); format: in vivo, blackgrass (Alopecurus myosuroides); details: foliage application, 320 g/ha, evaluated three weeks after application
How it was run: as §4

[24] = test system: Italian ryegrass; test: Test Example 5: herbicidal effect by foliage application, plastic box (Table 20, symbol K); format: in vivo, Italian ryegrass (Lolium multiflorum); details: foliage application, 320 g/ha, evaluated three weeks after application
How it was run: as §4

[25] = test system: windgrass; test: Test Example 5: herbicidal effect by foliage application, plastic box (Table 20, symbol L); format: in vivo, windgrass (Apera spica-venti); details: foliage application, 320 g/ha, evaluated three weeks after application
How it was run: as §4

[26] = test system: velvetleaf; test: Test Example 5: herbicidal effect by foliage application, plastic box (Table 20, symbol M); format: in vivo, velvetleaf (Abutilon theophrasti); details: foliage application, 320 g/ha, evaluated three weeks after application
How it was run: as §4

[27] = test system: redroot pigweed; test: Test Example 5: herbicidal effect by foliage application, plastic box (Table 20, symbol N); format: in vivo, redroot pigweed (Amaranthus retroflexus); details: foliage application, 320 g/ha, evaluated three weeks after application
How it was run: as §4

[28] = test system: lambsquarters; test: Test Example 5: herbicidal effect by foliage application, plastic box (Table 20, symbol O); format: in vivo, lambsquarters (Chenopodium album); details: foliage application, 320 g/ha, evaluated three weeks after application
How it was run: as §4

[29] = test system: chickweed; test: Test Example 5: herbicidal effect by foliage application, plastic box (Table 20, symbol P); format: in vivo, common chickweed (Stellaria media); details: foliage application, 320 g/ha, evaluated three weeks after application
How it was run: as §4

[30] = test system: persian speedwell; test: Test Example 5: herbicidal effect by foliage application, plastic box (Table 20, symbol R); format: in vivo, Persian speedwell (Veronica persica); details: foliage application, 320 g/ha, evaluated three weeks after application
How it was run: as §4

Compound	Herbicidal effect on A: late watergrass (grade 0-5) [1]	Herbicidal effect on B: Japanese bulrush (grade 0-5) [2]	Herbicidal effect on C: oval-leafed pondweed (grade 0-5) [3]	herbicidal effect on H: barnyard grass [4]	herbicidal effect on D: Chinese sprangletop [5]	herbicidal effect on E: rice flat sedge [6]	F: southern crabgrass, herbicidal effect rating [7]	G: green foxtail, herbicidal effect rating [8]	H: barnyard grass, herbicidal effect rating [9]	I: wild oat, herbicidal effect rating [10]	J: blackgrass, herbicidal effect rating [11]	K: Italian ryegrass, herbicidal effect rating [12]	L: windgrass, herbicidal effect rating [13]	M: velvetleaf, herbicidal effect rating [14]	N: redroot pigweed, herbicidal effect rating [15]	O: lambsquarters, herbicidal effect rating [16]	P: chickweed, herbicidal effect rating [17]	R: persian speedwell, herbicidal effect rating [18]	herbicidal effect on F: southern crabgrass (criteria 0-5) [19]	herbicidal effect on G: green foxtail (criteria 0-5) [20]	also measured
COc1cc(F)ccc1-c1sc2ccc(NS(C)(=O)=O)cc2c1-c1c(O)c(C)nn(C)c1=O [2-183]	2 (Herbicidal rate of 20% or more and less than 40%)	0 (Herbicidal rate of 5% or less (almost no effect))	0 (Herbicidal rate of 5% or less (almost no effect))	4 (Herbicidal rate of 70% or more and less than 90%)	3 (Herbicidal rate of 40% or more and less than 70%)	0 (Herbicidal rate of 5% or less (almost no effect))	0 (Herbicidal rate of 5% or less (almost no effect))	0 (Herbicidal rate of 5% or less (almost no effect))	0 (Herbicidal rate of 5% or less (almost no effect))	0 (Herbicidal rate of 5% or less (almost no effect))	0 (Herbicidal rate of 5% or less (almost no effect))	0 (Herbicidal rate of 5% or less (almost no effect))	0 (Herbicidal rate of 5% or less (almost no effect))	0 (Herbicidal rate of 5% or less (almost no effect))	0 (Herbicidal rate of 5% or less (almost no effect))	0 (Herbicidal rate of 5% or less (almost no effect))	3 (Herbicidal rate of 40% or more and less than 70%)	3 (Herbicidal rate of 40% or more and less than 70%)	0 (Herbicidal rate of 5% or less (almost no effect))	0 (Herbicidal rate of 5% or less (almost no effect))	herbicidal effect on H: barnyard grass (criteria 0-5) [21]: 0 (Herbicidal rate of 5% or less (almost no effect)); herbicidal effect on I: wild oat (criteria 0-5) [22]: 0 (Herbicidal rate of 5% or less (almost no effect)); herbicidal effect on J: blackgrass (criteria 0-5) [23]: 4 (Herbicidal rate of 70% or more and less than 90%); herbicidal effect on K: Italian ryegrass (criteria 0-5) [24]: 0 (Herbicidal rate of 5% or less (almost no effect)); herbicidal effect on L: windgrass (criteria 0-5) [25]: 3 (Herbicidal rate of 40% or more and less than 70%); herbicidal effect on M: velvetleaf (criteria 0-5) [26]: 1 (Herbicidal rate of 5% or more and less than 20%); herbicidal effect on N: redroot pigweed (criteria 0-5) [27]: 1 (Herbicidal rate of 5% or more and less than 20%); herbicidal effect on O: lambsquarters (criteria 0-5) [28]: 3 (Herbicidal rate of 40% or more and less than 70%); herbicidal effect on P: chickweed (criteria 0-5) [29]: 4 (Herbicidal rate of 70% or more and less than 90%); herbicidal effect on R: persian speedwell (criteria 0-5) [30]: 4 (Herbicidal rate of 70% or more and less than 90%)
Cc1nn(C)c(=O)c(-c2c(-c3cccc(F)c3)sc3ccc(F)cc23)c1O [2-201]	2 (Herbicidal rate of 20% or more and less than 40%)	2 (Herbicidal rate of 20% or more and less than 40%)	0 (Herbicidal rate of 5% or less (almost no effect))	5 (Herbicidal rate of 90% or more (almost completely withered))	4 (Herbicidal rate of 70% or more and less than 90%)	5 (Herbicidal rate of 90% or more (almost completely withered))	3 (Herbicidal rate of 40% or more and less than 70%)	3 (Herbicidal rate of 40% or more and less than 70%)	4 (Herbicidal rate of 70% or more and less than 90%)	0 (Herbicidal rate of 5% or less (almost no effect))	0 (Herbicidal rate of 5% or less (almost no effect))	2 (Herbicidal rate of 20% or more and less than 40%)	0 (Herbicidal rate of 5% or less (almost no effect))	4 (Herbicidal rate of 70% or more and less than 90%)	5 (Herbicidal rate of 90% or more (almost completely withered))	4 (Herbicidal rate of 70% or more and less than 90%)	3 (Herbicidal rate of 40% or more and less than 70%)	0 (Herbicidal rate of 5% or less (almost no effect))	4 (Herbicidal rate of 70% or more and less than 90%)	4 (Herbicidal rate of 70% or more and less than 90%)	herbicidal effect on H: barnyard grass (criteria 0-5) [21]: 5 (Herbicidal rate of 90% or more (almost completely withered)); herbicidal effect on I: wild oat (criteria 0-5) [22]: 0 (Herbicidal rate of 5% or less (almost no effect)); herbicidal effect on J: blackgrass (criteria 0-5) [23]: 0 (Herbicidal rate of 5% or less (almost no effect)); herbicidal effect on K: Italian ryegrass (criteria 0-5) [24]: 4 (Herbicidal rate of 70% or more and less than 90%); herbicidal effect on L: windgrass (criteria 0-5) [25]: 4 (Herbicidal rate of 70% or more and less than 90%); herbicidal effect on M: velvetleaf (criteria 0-5) [26]: 5 (Herbicidal rate of 90% or more (almost completely withered)); herbicidal effect on N: redroot pigweed (criteria 0-5) [27]: 5 (Herbicidal rate of 90% or more (almost completely withered)); herbicidal effect on O: lambsquarters (criteria 0-5) [28]: 5 (Herbicidal rate of 90% or more (almost completely withered)); herbicidal effect on P: chickweed (criteria 0-5) [29]: 5 (Herbicidal rate of 90% or more (almost completely withered)); herbicidal effect on R: persian speedwell (criteria 0-5) [30]: 5 (Herbicidal rate of 90% or more (almost completely withered))
